Experimental findings from patent US20070167387A1, “Novel artificial nucleic acids of n-o bond crosslinkage type” (TAKESHI IMANISHI, priority 2003, published 2007) are described below.

Common to all, as to format: binding
Data set [1] has as its system DNA strand (5′-AGCAAAAAACGC-3′). The data set is described as follows: Melting point (Tm) measurement, duplex-forming capacity with DNA strand. Particulars: 100 mM NaCl, 10 mM Na2HPO4 buffer (pH7.2), [strand] = 4 μM, average of 3 or more experiments. How it is done: (§1) The oligonucleotide analogues (1) to (5) and (13) to (17) synthesized in the Examples (i.e., antisense strands), and a sense strand of a natural DNA or RNA oligonucleotide were annealed. The melting points (Tm) of the annealing products were measured to investigate the duplex-forming capacity of the antisense strands.
(§2) Sample solutions (500 μL) with end concentrations of NaCl 100 mM, sodium phosphate buffer (pH 7.2) 10 mM, antisense strand 4 μM, and sense strand 4 μM were bathed in boiling water, and cooled down to room temperature over the course of 10 hours. A stream of nitrogen was flowed through a cell chamber of a spectrophotometer (Beckman, DU-650) to prevent dew formation, and the sample solutions were gradually cooled down to 5° C. Further, the sample solutions were maintained at 10° C. for 20 minutes, and then their measurements were started. The temperature was raised up to 90° C. at a rate of 0.5° C./min, and the ultraviolet absorption at 260 nm was measured.

For data set [2], the system named is RNA strand (5′-AGCAAAAAACGC-3′). Description: Melting point (Tm) measurement, duplex-forming capacity with RNA strand. The settings on record: 100 mM NaCl, 10 mM Na2HPO4 buffer (pH7.2), [strand] = 4 μM, average of 3 or more experiments. As for the experimental part:
as §1, §2

Data set [3] has as its system dsDNA 5′-d(GCT AAAAAGAAAGAGAGATCG)-3′ / 3′-d(CGATTTTTCTTTCTCTCTAGC)-5′. The data set is described as follows: Tm measurement, triplex-forming capacity with dsDNA (Table 5-1). The settings on record: 140 mM KCl, 7 mM Na2HPO4 buffer (pH 7.0), each strand 1.5 μM. How it is done:
as §2
(§3) In connection with the oligonucleotide analogues (6) to (11) and (18) to (21) synthesized in the Examples, the triplex-forming capacity with the target double-stranded DNA's indicated below was investigated by the same method as in Experimental Example 1. The salt concentrations and pH during measurement complied with the conditions described below the respective tables.

The subject of data set [4] is dsDNA 5′-d(GCTGCT AAAAAGAAAGAGAGATCGTCG)-3′ / 3′-d(CGACGATTTTTCTTTCTCTCTAGCAGC)-5′. Description: Tm measurement, triplex-forming capacity with dsDNA, with MgCl2 (Table 5-2). The settings on record: 140 mM KCl, 10 mM MgCl2, 7 mM Na2HPO4 buffer (pH 7.0), each strand 1.5 μM. How it is done:
as §2, §3

In data set [5] the test system is dsDNA 5′-d([…])-3′ / 3′-d(CGATTTTTCTNTCTCTCTAGC)-5′. Description: Sequence selective triplex-formation, match and mismatch dsDNA (Table 5-3). Particulars: for Tm: 140 mM KCl, 7 mM sodium phosphate buffer (pH 7.0), each strand 1.5 μM. As for the experimental part:
as §2, §3

For the substance “5′-GCGTTTTTTGCT-3′ (unmodified DNA) [natural antisense strand, reference compound]”, the Tm stood at 50 °C in data set [1] and 45 °C in data set [2].

On to “5′-TTTTT^mCTTT^mCT^mCT^mCT-3′ (TTTTTCTTTCTCTCT; all C 5-methyl, sugars by position and backbone not given here) [unmodified triplex-forming oligonucleotide, Z = natural T, reference compound]”, for which the Tm in data set [3] was found to be 33 °C; in data set [4] it was 43 °C; in data set [5] (M·N = A·T (match)) it was 43 °C; in data set [5] (M·N = C·G (mismatch)) it was 25 °C; in data set [5] (M·N = G·C (mismatch)), 21 °C; in data set [5] (M·N = T·A (mismatch)) it was 18 °C. Moreover, the results for the “ΔTm = Tm(mismatch) − Tm(match)” value in data set [5] (M·N = C·G), in data set [5] (M·N = G·C) and in data set [5] (M·N = T·A) were −18 °C, −22 °C and −25 °C, respectively.

For the substance “5′-TTTTT^mCYYY^mCT^mCT^mCT-3′ [Oligonucleotide analogue (20)]”, in data set [3], the Tm amounted to 59 °C and the ΔTm/modification entry was “+8.7 °C”. In addition, in data set [4], the Tm came to 71 °C and the ΔTm/modification entry is “+9.3 °C”.

“5′-TTTTX^mCTXT^mCX^mCT^mCT-3′ [Oligonucleotide analogue (7)]”: in data set [3], the Tm amounted to 47 °C and the ΔTm/modification result was “+4.6 °C”. For the same substance, in data set [4], the Tm worked out at 61 °C and the ΔTm/modification entry was “+6.0 °C”.

For “5′-TTTTY^mCTYT^mCY^mCT^mCT-3′ [Oligonucleotide analogue (19)]”, in data set [3], the Tm was determined as 60 °C and the ΔTm/modification result was “+9.0 °C”. Besides, in data set [4], the Tm amounted to 73 °C and the ΔTm/modification entry is “+10.0 °C”.

“5′-TXTTX^mCTXT^mCX^mCTX*T-3′ [Oligonucleotide analogue (10)]”: in data set [3], the Tm was 50 °C and the ΔTm/modification result is “+3.4 °C”. In addition, in data set [4], the Tm came out at 63 °C and the ΔTm/modification result is “+4.0 °C”.

“5′-XTTTX^mCTTX^mCT^mCX^mCT-3′ [Oligonucleotide analogue (11)]”: in data set [3], the Tm was 45 °C and the ΔTm/modification result is “+3.0 °C”. Moreover, in data set [4], the Tm came to 59 °C and the ΔTm/modification result is “+4.0 °C”.

Take “5′-XTXTX^mCXTX^mCX^mCX^mCT-3′ [Oligonucleotide analogue (9)]”: in data set [3], the Tm was 59 °C and the ΔTm/modification entry was “+3.7 °C”. In data set [4], the Tm was > 80 °C and the ΔTm/modification result is “> +5 °C”.

For “5′-YTYTY^mCYTY^mCY^mCY^mCT-3′ [Oligonucleotide analogue (21)]”, in data set [3], the Tm is 78 °C and the ΔTm/modification result is “+6.4 °C”. In data set [4], the Tm is > 80 °C and the ΔTm/modification result was “> +5 °C”.
